Measurements published in patent US12276657B2, “Detection of PAR in the CSF of patients with Parkinson's disease” (The Johns Hopkins University, priority 2017, dated 2025).
Residues, ends and D or L forms follow the SMILES beside them. *: point of attachment. Cbz = O=C(OCc1ccccc1)*; CH2F = FC*

Legend:
PARP = target: T1, PARP (Mus musculus, UniProt P11103); experiment: α-syn PFF-induced PARP activation (PAR accumulation) in primary cortical neurons, western blot; assay type: cell-based; settings: inhibitor pre-incubated 1 h (ABT-888 10 μM, AG-014699 1 μM, BMN 673 10 μM), then α-syn PFF
T1 construct: Primary cortical neurons from WT or PARP1 KO embryos were prepared; endogenous in cells; host or cells: primary mouse cortical neurons (embryonic day 16)
Procedure: After homogenization, samples were rotated at 4° C. for 30 min for complete lysis, the homogenate was centrifuged at 15,000 g for 20 min and the supernatants were used for further analysis. Protein levels were quantified using the BCA assay (Pierce, Rockford, Ill., USA), samples were separated using SDS-polyacrylamide gels and transferred onto nitrocellulose membranes. The membranes were blocked with 5% non-fat milk in TBS-T (Tris-buffered saline with 0.1% TWEEN-20® (Polysorbate 20)) for 1 h, probed using primary antibodies (Table 3) and incubated with appropriate HRP-conjugated secondary antibodies. The bands were visualized by ECL substrate.
Primary cortical neurons from WT or PARP1 KO embryos were prepared. Briefly, the primary cortical neurons were cultured at embryonic day 16 in neurobasal media supplemented with B-27, 0.5 mM L-glutamine, penicillin and streptomycin (Invitrogen, Grand Island, NY). The neurons were replaced to fresh medium every 3-4 days. […] Primary neurons were infected with AAV2-control sgRNA or AAV2-PARP1 sgRNA (ViGene Bioscineces, Rockville, MD, USA), and AAV-α-syn WT or AAV-α-syn A53T at DIV 4-5.

primary cortical neurons = experiment: Cell death of primary cortical neurons, Hoechst and propidium iodide staining; assay type: cell-based, mouse; settings: for α-syn PFF-mediated cell death (PI staining): inhibitor pre-incubated 1 h (ABT-888 10 μM, AG-014699 1 μM, BMN 673 10 μM), α-syn PFF 5 μg/ml 14 days; for α-syn PFF toxicity (cell death, FIGS. 47 and 48): pre-treated 1 h: ABT-888 10 μM, Z-VAD 20 μM, Nec-1 20 μM, 3-MA 500 μM, α-syn PFF 14 days
Procedure: SH-SYSY cells (ATCC) were cultured in DMEM containing 10% fetal bovine serum and penicillin/streptomycin at 37° C. under 5% CO2. The cells were transfected using PolyFect reagent (Qiagen) according to the manufacturer's instructions. Primary cortical neurons from WT or PARP1 KO embryos were prepared. Briefly, the primary cortical neurons were cultured at embryonic day 16 in neurobasal media supplemented with B-27, 0.5 mM L-glutamine, penicillin and streptomycin (Invitrogen, Grand Island, NY). The neurons were replaced to fresh medium every 3-4 days. ABT-888 (10 μM), AG-014699 (1 μM), BMN 673 (10 μM), Z-VAD (20 μM), Nec-1 (20 μM) or 3-MA (500 μM) was pretreated to neurons 1 h before α-syn PFF treatment. α-syn PFF were added at 7 days in vitro (DIV) and further incubated for indicated times followed by cell death assay or biochemical experiments. Primary neurons were infected with AAV2-control sgRNA or AAV2-PARP1 sgRNA (ViGene Bioscineces, Rockville, MD, USA), and AAV-α-syn WT or AAV-α-syn A53T at DIV 4-5.
Percent of cell death was determined by staining with 7 μM Hoechst 33342 and 2 μM propidium iodide (PI) (Invitrogen, Carlsbas, CA). Images were taken and counted by Zeiss microscope equipped with automated computer assisted software (Axiovision 4.6, Carl Zeiss, Dublin, CA, USA).

α-syn [1] = experiment: α-syn aggregation and PARP activation in primary cortical neurons transduced with AAV-α-syn (NMDA or PAR delivery); assay type: cell-based, mouse; settings: for NMDA-induced PARP activation / NMDA-induced α-syn aggregation: 10 μM ABT-888 or 1 μM AG-014699 1 h, then 500 μM NMDA 5 min
WT mice = experiment: Intrastriatal injection of PAR-α-syn PFF, α-syn PFF or PAR in WT mice; assay type: in vivo, mouse
Source text: There is no significant loss of DA neuron contralateral to the injection side at any time point (FIGS. 81 and 82).

α-syn [2] = experiment: In vitro fibrillization of recombinant α-syn (immunoblot, thioflavin T, TEM); assay type: biochemical, mouse; settings: for α-syn fibrillization with other polymer or monomer: 5 nM, 36 h
SH-SYSY cells = experiment: α-syn aggregation and PARP activation in SH-SYSY cells transfected with α-syn (MNNG or PAR delivery); assay type: cell-based; settings: for MNNG-induced PARP activation / MNNG-induced α-syn aggregation: 10 μM ABT-888 or 1 μM AG-014699 1 h, then 50 μM MNNG 15 min
[3] = WT cultures, 500 μM NMDA 5 min, 6 h after

T1 sequence (P11103 whole entry): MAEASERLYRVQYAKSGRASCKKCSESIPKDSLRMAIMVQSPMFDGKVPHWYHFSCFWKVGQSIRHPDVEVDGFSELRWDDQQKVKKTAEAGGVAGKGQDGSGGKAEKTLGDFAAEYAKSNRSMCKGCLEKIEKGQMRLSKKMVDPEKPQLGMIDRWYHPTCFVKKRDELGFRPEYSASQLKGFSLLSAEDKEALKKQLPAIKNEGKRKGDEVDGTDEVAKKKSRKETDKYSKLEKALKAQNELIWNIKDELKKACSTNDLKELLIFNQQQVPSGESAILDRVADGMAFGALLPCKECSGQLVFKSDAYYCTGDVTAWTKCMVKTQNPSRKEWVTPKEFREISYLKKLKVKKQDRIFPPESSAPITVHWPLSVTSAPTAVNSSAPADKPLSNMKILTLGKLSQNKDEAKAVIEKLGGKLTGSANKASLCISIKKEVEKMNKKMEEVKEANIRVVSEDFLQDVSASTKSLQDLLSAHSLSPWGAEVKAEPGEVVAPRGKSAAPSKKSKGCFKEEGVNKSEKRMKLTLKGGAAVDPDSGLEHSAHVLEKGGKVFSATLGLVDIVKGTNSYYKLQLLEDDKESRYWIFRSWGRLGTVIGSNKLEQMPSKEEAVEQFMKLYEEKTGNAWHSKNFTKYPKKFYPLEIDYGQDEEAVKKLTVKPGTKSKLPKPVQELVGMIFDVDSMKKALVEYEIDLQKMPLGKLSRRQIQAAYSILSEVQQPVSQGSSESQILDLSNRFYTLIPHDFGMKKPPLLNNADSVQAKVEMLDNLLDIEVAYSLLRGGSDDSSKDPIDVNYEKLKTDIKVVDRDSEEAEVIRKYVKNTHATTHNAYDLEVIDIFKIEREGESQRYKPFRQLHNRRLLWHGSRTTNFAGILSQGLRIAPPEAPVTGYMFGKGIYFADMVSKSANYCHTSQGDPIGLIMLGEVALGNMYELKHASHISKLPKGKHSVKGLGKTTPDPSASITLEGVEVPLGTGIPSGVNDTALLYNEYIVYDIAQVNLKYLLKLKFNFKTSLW

Compound: Cn1ncnc1[C@H]1c2n[nH]c(=O)c3cc(F)cc(c23)N[C@@H]1c1ccc(F)cc1 [BMN 673, Talazoparib]
- α-syn PFF-mediated PARP activation (PARP): prevents
- α-syn PFF-mediated cell death (PI staining) (primary cortical neurons): prevents

Compound: CN1C(=O)C(Cc2c[nH]c3ccccc23)NC1=S (centres unmarked) [Necrostatin-1]
- α-syn PFF toxicity (cell death, FIGS. 47 and 48) (primary cortical neurons): had no effect

Compound: Poly(ADP-ribose) [PAR]
- aggregation of α-syn after exogenous PAR via Bioporter (α-syn [1]; WT and PARP-1 KO cultures transduced with AAV-α-syn): increases the aggregation of α-syn
- DA concentration in the contralateral striatum, HPLC (WT mice; 1, 3 and 6 months): no significant difference of DA concentration
- DA neuron number after PAR injection by itself (WT mice; 1, 3 and 6 months): has no effect on DA neuron number
- pole test (WT mice; 3 months): no significant deficits
- earliest time different molecular weight forms of α-syn observed (α-syn [2]; 5 nM PAR, 37° C.): 24 h
- fibrillization of α-syn, immunoblot (α-syn [2]; 5 nM PAR, 37° C., agitated): markedly accelerated
- effect of temperature on α-syn fibrillization (α-syn [2]; 5 nM PAR, indicated temperatures, 72 h): causes the fibrillization of α-syn at temperatures that are not permissive for α-syn fibrillization in the absence of PAR
- PAR concentration of peak α-syn aggregation (α-syn [2]; 36 hours): 5 nM
- α-syn fibrillization at 1 nM PAR (α-syn [2]; 36 hours): capable of enhancing α-syn fibrillization
- α-syn fibrillization at 20 nM PAR (α-syn [2]; 36 hours): does not appreciably increase α-syn fibrillization
- α-syn fibrils, TEM (α-syn [2]; in the presence of PAR, 37° C.): extensively fibrillated at 12 hours
- thioflavin T fluorescence, PAR alone (α-syn [2]; without α-syn): has no effect on thioflavin T fluorescence
- fibrillization of α-syn, thioflavin T fluorescence (α-syn [2]; α-syn with PAR): accelerates the fibrillization of α-syn
- aggregation of α-syn after exogenous PAR (SH-SYSY cells; SH-SYSY WT and SH-SYSY PARP-1 KO cultures): increased the aggregation of α-syn
- neuronal cell death by PAR itself (primary cortical neurons; 20 nM, 14 days): does not cause significant cell death

Compound: COC(=O)C[C@H](NC(=O)[C@H](C)NC(=O)[C@@H](NC(=O)OCc1ccccc1)C(C)C)C(=O)CF [Z-VAD-FMK] (Cbz-Val-Ala-Asp(OMe)-CH2F)
- α-syn PFF toxicity (cell death, FIGS. 47 and 48) (primary cortical neurons): partially reduces α-syn PFF toxicity
- α-syn PFF toxicity (cell death, FIGS. 47 and 48) (primary cortical neurons; listed as ZVAD): modest neuroprotection

Compound: CN[C@H](CC(=O)O)C(=O)O [NMDA, N-methyl-D-aspartate]
- activation of PARP, PAR immunoblot (α-syn [1]; [3]): leads to activation of PARP
- aggregation of α-syn after NMDA (α-syn [1]; [3]): concomitant aggregation of α-syn

Compound: CNCc1ccc(-c2[nH]c3cc(F)cc4c3c2CCNC4=O)cc1 [AG-014699, Rucaparib]
- NMDA-induced PARP activation (α-syn [1]): prevent
- NMDA-induced α-syn aggregation (α-syn [1]): prevent
- α-syn PFF-mediated PARP activation (PARP): prevents
- MNNG-induced PARP activation (SH-SYSY cells): prevent
- MNNG-induced α-syn aggregation (SH-SYSY cells): prevent
- α-syn PFF-mediated cell death (PI staining) (primary cortical neurons): prevents

Compound: C[C@]1(c2nc3c(C(N)=O)cccc3[nH]2)CCCN1 [ABT-888, veliparib]
- NMDA-induced PARP activation (α-syn [1]): prevent
- NMDA-induced α-syn aggregation (α-syn [1]): prevent
- α-syn PFF-mediated PARP activation (PARP): prevents
- MNNG-induced PARP activation (SH-SYSY cells): prevent
- MNNG-induced α-syn aggregation (SH-SYSY cells): prevent
- α-syn PFF-mediated cell death (PI staining) (primary cortical neurons): prevents
- α-syn PFF toxicity (cell death, FIGS. 47 and 48) (primary cortical neurons): prevents α-syn PFF toxicity

Compound: Nc1ncnc2c1ncn2[C@@H]1O[C@H](COP(=O)(O)OP(=O)(O)OC[C@H]2OC(O)[C@H](O)[C@@H]2O)[C@@H](O)[C@H]1O (some centres unmarked) [ADP ribose monomer, ADP ribose]
- α-syn fibrillization with other polymer or monomer (α-syn [2]; 37° C.): had no effect on α-syn fibrillization

Compound: Cn1cnc(N)c2ncnc1-2 [3-Methyladenine]
- α-syn PFF toxicity (cell death, FIGS. 47 and 48) (primary cortical neurons): had no effect

Compound: PolyA
- α-syn fibrillization with other polymer or monomer (α-syn [2]; 37° C.): had no effects on α-syn fibrillization
